From patent US20250009743A1, “METHODS OF TREATING CANCERS USING STING AGONISTS” (Dana-Farber Cancer Institute, Inc., priority 2021, published 2025) come the findings set out here.

The test system of assay [1] is ovarian PDXs DF86, DF101, DF118 and DF149. Description: p-STAT3 (Y705) in PARPi-resistant ovarian PDX cells. It is filed as cell-based, human. The conditions noted are these: 5 μM olaparib for 24 hours; FIG. 25B. An excerpt: UWB1.289 and UWB1.289+BRCA1 were purchased from ATCC and cultured in epithelial complete growth medium (50% ATCC-formulated RPMI-1640 medium, 50% MEGM medium and 3% fetal bovine serum) as described previously (Ding et al., 2018, Cell Rep 25, 2972-2980.e2975). ID8-Brca^+/+ and ID8-Brca^−/− cells were previously generated by CRISPR-Cas9 technology. The ovarian cancer patient-derived tumor xenografts (PDX) were established at Dana-Farber Cancer Institute by intraperitoneally implanting tumor cells that isolated from patients' ascites into irradiated nude mice (Liu et al., 2017; Clinical cancer research: an official journal of the American Association for Cancer Research 23, 1263-1273). The established PDX models were maintained by intraperitoneally transplantation in NOD/SCID IL2Rgnull mice (NSG, The Jackson Laboratory). The ovarian PDX cells could be cultured in the epithelial complete growth medium for about 3 to 4 days for in vitro experiments.
Analysis of p-STAT3 and γ-H2AX (p-HA2X-Ser139) was performed according to a two-step protocol for intracellular phosphorylated signaling proteins (Thermo Fisher). Briefly, cells were incubated with LIVE/DEAD Fixable Aqua Dead Cell Stain for 30 min. […]

Assay [2] concerns BP-sgSTING tumors. Description: BP-sgSTING tumor growth and survival in FVB mice. The conditions noted are these: olaparib 50 mg/kg i.p. q.d. It is filed as in vivo, mouse. The protocol:
Primary mammary tumor cells for orthotopic injection were resuspended in serum-free DMEM containing 40% matrigel (Corning). 5×10^5 tumor cells in a total volume of 100 μL were injected orthotopically into the thoracic mammary fat pads of 8-week-old female FVB/NJ mice (The Jackson Laboratory). Tumor growth was examined by measuring the greatest longitudinal diameter (length) and the greatest transverse diameter (width) with digital calipers, and tumor volume was calculated by use of the modified ellipsoid formula (0.52×length×width2). Tumors were measured 2-3 times a week. All tumor measurements within single cohorts were performed by the same researcher. Tumor-bearing mice were randomized prior to start of treatment. Drug treatments were started when mean tumor volumes approximated 50-100 mm3. Mice were euthanized by CO2 inhalation when tumor volumes met humane endpoints described in the IACUC (20 mm diameter) protocols or upon severe health deterioration.
Olaparib (MedChem, #HY-10162) was prepared by diluting 100 mg/l mL stocks in DMSO with 10% (2-Hydroxypropyl)-β-cyclodextrin (HPCD, MedChem, #101103) in PBS and administered immediately after drug preparation by intraperitoneal (i.p.) injection at a dose of 50 mg/kg body weight daily. DMXAA (Sigma, #D5817) was reconstituted at 10 mg/mL in 7.5% NaHCO3(Gibco). […]

Assay [3] has as its system WT BMDMs and STING^−/− BMDMs. Description: WT and STING^−/− BMDMs cultured in CM from ID8-Brca1^−/− cells. The class given is cell-based, mouse. The conditions noted are these: CM of control or olaparib-treated ID8-Brca1^−/− cells; FIG. 21I. The procedure:
For ex vivo culture of mouse macrophages, bone marrow cells were isolated from FVB/NJ mice and cultured in DMEM containing 10% FBS, 55 μM 2-Mercaptoethanol and 20 ng/ml M-CSF. BMDMs (bone marrow derived macrophages) were harvested on day 7 and further cultured in 2.0 ml control medium (90% DMEM, 10% FBS, 55 μM 2-Mercaptoethanol and 5 ng/ml M-CSF) described above or the medium containing 50% tumor cell conditioned medium for 72 hrs before analysis. For the tumor cell conditioned medium, about 3×10^5 tumor cells were cultured in 6-well plate for 24 hrs and then treated with DMSO or olaparib. After 24 hrs incubation with DMSO or olaparib, the tumor cells were washed twice with PBS and cultured in DMEM containing 10% FBS for 48 hrs. The tumor cell conditioned medium was collected by centrifugation at 1,500 g for 5 min at 4° C. to remove all the debris and cells. For the cytokine blocking experiment, monoclonal antibodies that specific to each cytokine were added to the tumor cell conditioned medium before it was applied to culture macrophages.

Assay [4] relates to PE tumors. Description: PE (exon19del/T790M EGFR, Trp53 loss) tumor growth in FVB mice. It is filed as in vivo, mouse. The conditions noted are these: start at about 400 mm^3; osimertinib 10 mg/kg daily by gavage; MSA-2 20 mg/kg i.p. every three days; FIG. 30A.

SMILES strings stand for the structures.

On to `O=C(c1cc(Cc2n[nH]c(=O)c3ccccc23)ccc1F)N1CCN(C(=O)C2CC2)CC1` [olaparib], for which the “PDX cells with increased phosphorylation level STAT3” value in assay [1] was 3 out of 4. As for `Cc1ccc2c(=O)c3cccc(CC(=O)O)c3oc2c1C` [DMXAA, 5,6-dimethyl-xanthenone-4-acetic acid], the BP-sgSTING tumor growth entry is reported as “no significant impact” in assay [2] (DMXAA 10 mg/kg i.p. weekly, FIG. 11H) and “completely refractory” in assay [2] (DMXAA 10 mg/kg intratumoral one dose per week, FIG. 12B). On to `COc1cc2cc(C(=O)CCC(=O)O)sc2cc1OC` [MSA-2], for which the “M2-like TAM polarization of WT BMDMs” value in assay [3] was “successfully reversed”. Further, in assay [4], the PE tumor growth result is given as “only modest therapeutic effects”.
